{"source": "patent US20250163104A1", "about": "“MACROCYCLIC IMMUNOMODULATORS” (priority 2021, published 2025)", "note": "Where a SMILES comes first, the peptide text is derived from it. Bridges are numbered along the chain shown (N, C = ends). [ ]: non-standard residue; d: D form. The star is where a group is joined. Phe(3-COOH) = N[C@@H](Cc1cccc(C(=O)O)c1)C(=O)O; Phe(4-COOH) = N[C@@H](Cc1ccc(C(=O)O)cc1)C(=O)O; Bip = N[C@@H](Cc1ccc(-c2ccccc2)cc1)C(=O)O; Phe(3-Me) = Cc1cccc(C[C@H](N)C(=O)O)c1; 4Pal = N[C@@H](Cc1ccncc1)C(=O)O; Cha = N[C@@H](CC1CCCCC1)C(=O)O; Cit = NC(=O)NCCC[C@H](N)C(=O)O; Carboxymethyl = O=C(O)C*; Orn = NCCC[C@H](N)C(=O)O; Dab = NCC[C@H](N)C(=O)O; Dap = NC[C@H](N)C(=O)O"}
{"target": "T1, human PD-1 / PD-L1-Ig binding on Jurkat cell line over-expressing human PD-1 (Jurkat-PD-1) (Homo sapiens, UniProt Q15116)", "T1 construct": "expressed in transfected cells; host or cells: Jurkat", "T1 sequence (Q15116 25-288)": "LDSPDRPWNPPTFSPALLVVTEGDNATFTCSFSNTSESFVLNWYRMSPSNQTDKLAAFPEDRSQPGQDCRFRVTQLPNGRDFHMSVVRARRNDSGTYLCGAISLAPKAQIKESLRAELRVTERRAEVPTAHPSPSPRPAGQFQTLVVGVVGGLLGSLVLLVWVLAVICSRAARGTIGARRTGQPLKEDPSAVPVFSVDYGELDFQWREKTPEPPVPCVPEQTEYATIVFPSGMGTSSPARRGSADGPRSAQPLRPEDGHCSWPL", "assay": "Jurkat-PD-1 Cell Binding High-Content Screening Assay (CBA)", "type": "cell-based", "conditions": "Jurkat HPD1_PDL1 IC50, Jurkat-PD-1 cells, PE-labeled PD-L1-Ig 20 nM final", "how_it_was_run": "(§1)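 PE-PD-L1-Ig 20 nM final; cells in DMEM/10% FCS; cpd pre-incubation 2 h, 37° C; ligand 1 h; PFA fix + Hoechst 33342; high-content imaging read-out.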", "units": {"IC50": "µM"}}
{"smiles": "CC(C)C[C@@H]1NC(=O)[C@H](Cc2c[nH]c3ccccc23)NC(=O)[C@H](CC(=O)O)NC(=O)[C@H](Cc2ccc(OCC(=O)O)cc2)NC(=O)[C@H](CN)NC(=O)CSC[C@@H](C(=O)NCC(N)=O)NC(=O)[C@H](CO)NC(=O)[C@H](C(C)C)NC(=O)[C@H](CC2CCCCC2)NC(=O)[C@H](CC(N)=O)NC(=O)[C@@H](CC(C)C)NC(=O)[C@H](CN)NC(=O)[C@H](C(C)C)NC(=O)[C@H](Cc2ccc(-c3ccccc3)cc2)NC1=O", "note": "[Compound 1394] ({CH2CO}-[Dap]Y(Carboxymethyl)DWL[Bip]V[Dap][dL]N[Cha]VSCG-NH2; thioether N-14)", "IC50": 0.0076}
{"smiles": "CC(C)C[C@@H]1NC(=O)[C@H](Cc2c[nH]c3ccccc23)NC(=O)[C@H](CC(=O)O)NC(=O)[C@H](Cc2ccc(O)cc2)NC(=O)[C@H](Cc2ccccc2)NC(=O)CSC[C@@H](C(=O)NCC(N)=O)NC(=O)[C@H]([C@@H](C)O)NC(=O)[C@H](C(C)C)NC(=O)[C@H](CC(C)C)NC(=O)[C@H](CC(N)=O)NC(=O)[C@@H](C)NC(=O)[C@H](CCN)NC(=O)[C@H](C(C)C)NC(=O)[C@H](Cc2ccc(-c3ccccc3)cc2)NC1=O", "note": "[Compound 1099] ({CH2CO}-FYDWL[Bip]V[Dab][dA]NLVTCG-NH2; thioether N-14)", "IC50": 0.0845}
{"target": "T1, human PD-1 / PD-L1-Ig binding on Jurkat cell line over-expressing human PD-1 (Jurkat-PD-1)", "assay": "Jurkat-PD-1 Cell Binding High-Content Screening Assay (CBA)", "type": "cell-based", "conditions": "Jurkat-PD-1 cells, PE-labeled PD-L1-Ig 20 nM final; read-out: Jurkat HPD1_PDL1 IC50", "how_it_was_run": "as §1", "units": {"IC50": "µM"}}
{"smiles": "CC(C)C[C@@H]1NC(=O)[C@H](CCCCN)NC(=O)[C@@H](CC(C)C)NC(=O)[C@H](CCCN)NC(=O)[C@H](Cc2cnc[nH]2)NC(=O)[C@H](Cc2ccc(-c3ccccc3)cc2)NC(=O)[C@H](C(C)C)NC(=O)[C@H](Cc2c[nH]c3ccccc23)NC(=O)[C@H](CC(=O)O)NC(=O)[C@H](Cc2ccc(O)cc2)NC(=O)[C@H](CC(N)=O)NC(=O)CSC[C@@H](C(=O)N[C@@H](C)C(N)=O)NC(=O)[C@H]([C@@H](C)O)NC(=O)[C@H](C(C)C)NC1=O", "note": "[Compound 1133] ({CH2CO}-NYDWV[Bip]H[Orn][dL]KLVTCA-NH2; thioether N-14)", "IC50": 0.0331}
{"smiles": "CC(C)C[C@H]1NC(=O)[C@H](CCCN)NC(=O)[C@H](CCC(=O)O)NC(=O)[C@H](Cc2ccc(-c3ccccc3)cc2)NC(=O)[C@H](C(C)C)NC(=O)[C@H](Cc2c[nH]c3ccccc23)NC(=O)[C@H](CC(=O)O)NC(=O)[C@H](Cc2cccnc2)NC(=O)[C@H](Cc2ccc(OCC(=O)O)cc2)NC(=O)CSC[C@@H](C(=O)N[C@@H](C)C(N)=O)NC(=O)[C@H]([C@@H](C)O)NC(=O)[C@H](C(C)C)NC(=O)[C@H](CC2CCCCC2)NC(=O)[C@H](CCN)NC1=O", "note": "[Compound 2173]", "IC50": 0.0168}
{"smiles": "CC(C)C[C@H]1NC(=O)[C@H](CCCN)NC(=O)[C@H](CCCN)NC(=O)[C@H](Cc2ccc(-c3ccccc3)cc2)NC(=O)[C@H](C(C)C)NC(=O)[C@H](Cc2c[nH]c3ccccc23)NC(=O)[C@H](CC(=O)O)NC(=O)[C@H](Cc2ccc(C(=O)O)cc2)NC(=O)[C@H](Cc2ccc(OCC(=O)O)cc2)NC(=O)CSC[C@@H](C(=O)N[C@@H](C)C(N)=O)NC(=O)[C@H]([C@@H](C)O)NC(=O)[C@H](C(C)C)NC(=O)[C@H](CC2CCCCC2)NC(=O)[C@H](CCN)NC1=O", "note": "[Compound 1382] ({CH2CO}-Y(Carboxymethyl)[Phe(4-COOH)]DWV[Bip][Orn][Orn][dL][Dab][Cha]VTCA-NH2; thioether N-14)", "IC50": 0.014}
{"smiles": "CC(C)C[C@@H]1NC(=O)[C@H](Cc2c[nH]c3ccccc23)NC(=O)[C@H](CC(=O)O)NC(=O)[C@H](Cc2ccc(OCC(=O)O)cc2)NC(=O)[C@H](CN)NC(=O)CSC[C@@H](C(=O)N[C@@H](C)C(N)=O)NC(=O)[C@H]([C@@H](C)O)NC(=O)[C@H](C(C)C)NC(=O)[C@H](CC(C)C)NC(=O)[C@H](CCN)NC(=O)[C@@H](CC(C)C)NC(=O)[C@H](CCCN)NC(=O)[C@H](C(C)C)NC(=O)[C@H](Cc2ccc(-c3ccccc3)cc2)NC1=O", "note": "[Compound 1313] ({CH2CO}-[Dap]Y(Carboxymethyl)DWL[Bip]V[Orn][dL][Dab]LVTCA-NH2; thioether N-14)", "IC50": 0.0157}
{"smiles": "Cc1cccc(C[C@@H]2NC(=O)[C@H](CC(=O)O)NC(=O)[C@H](Cc3ccc(C(=O)O)cc3)NC(=O)[C@H](Cc3ccncc3)NC(=O)CSC[C@@H](C(N)=O)NC(=O)[C@H](CCC(=O)O)NC(=O)[C@H](C(C)C)NC(=O)[C@H](CC3CCCCC3)NC(=O)[C@H](CCN)NC(=O)[C@@H](CC(C)C)NC(=O)[C@H](CCCN)NC(=O)[C@H](CCCNC(N)=O)NC(=O)[C@H](Cc3ccc(-c4ccccc4)cc3)NC(=O)[C@H](C(C)C)NC2=O)c1", "note": "[Compound 2269] ({CH2CO}-[4Pal][Phe(4-COOH)]D[Phe(3-Me)]V[Bip][Cit][Orn][dL][Dab][Cha]VEC-NH2; thioether N-14)", "IC50": 0.0341}
{"smiles": "CC(C)C[C@H]1NC(=O)[C@H](CCCN)NC(=O)[C@H](CCC(=O)O)NC(=O)[C@H](Cc2ccc(-c3ccccc3)cc2)NC(=O)[C@H](C(C)C)NC(=O)[C@H](Cc2c[nH]c3ccccc23)NC(=O)[C@H](CC(=O)O)NC(=O)[C@H](Cc2ccc(OCC(=O)O)cc2)NC(=O)[C@H](CN)NC(=O)CSC[C@@H](C(=O)N[C@@H](C)C(N)=O)NC(=O)[C@H]([C@@H](C)O)NC(=O)[C@H](C(C)C)NC(=O)[C@H](CC2CCCCC2)NC(=O)[C@H](Cc2cnc[nH]2)NC1=O", "note": "[Compound 1518]", "IC50": 0.0187}
{"smiles": "CC[C@H](C)[C@@H]1NC(=O)[C@H](Cc2ccc(-c3ccccc3)cc2)NC(=O)[C@H](C(C)C)NC(=O)[C@H](Cc2c[nH]c3ccccc23)NC(=O)[C@H](CC(=O)O)NC(=O)[C@H](Cc2ccc(O)cc2)NC(=O)[C@H](CC(N)=O)NC(=O)CSC[C@@H](C(=O)N[C@@H](C)C(N)=O)NC(=O)[C@H]([C@@H](C)O)NC(=O)[C@H](C(C)C)NC(=O)[C@H](CC(C)C)NC(=O)[C@H](CCCNC(=N)N)NC(=O)[C@@H](CC(C)C)NC(=O)[C@H](CCCN)NC1=O", "note": "[Compound 1143] ({CH2CO}-NYDWV[Bip]I[Orn][dL]RLVTCA-NH2; thioether N-14)", "IC50": 0.0158}
{"smiles": "CC[C@H](C)[C@@H]1NC(=O)[C@H](Cc2ccc(-c3ccccc3)cc2)NC(=O)[C@H](C(C)C)NC(=O)[C@H](Cc2c[nH]c3ccccc23)NC(=O)[C@H](CC(=O)O)NC(=O)[C@H](Cc2ccc(O)cc2)NC(=O)[C@H](Cc2ccccc2)NC(=O)CSC[C@@H](C(=O)N[C@@H](C)C(N)=O)NC(=O)[C@H]([C@@H](C)O)NC(=O)[C@H](C(C)C)NC(=O)[C@H](CC2CCCCC2)NC(=O)[C@H](CCCNC(=N)N)NC(=O)[C@@H](CC(C)C)NC(=O)[C@H](CCCN)NC1=O", "note": "[Compound 1148] ({CH2CO}-FYDWV[Bip]I[Orn][dL]R[Cha]VTCA-NH2; thioether N-14)", "IC50": 0.051}
{"smiles": "CC[C@H](C)[C@@H]1NC(=O)[C@H](Cc2ccc(-c3ccccc3)cc2)NC(=O)[C@H](C(C)C)NC(=O)[C@H](Cc2c[nH]c3ccccc23)NC(=O)[C@H](CC(=O)O)NC(=O)[C@H](Cc2ccc(OCC(=O)O)cc2)NC(=O)[C@H](Cc2ccncc2)NC(=O)CSC[C@@H](C(=O)N[C@@H](C)C(N)=O)NC(=O)[C@H]([C@@H](C)O)NC(=O)[C@H](C(C)C)NC(=O)[C@H](CC(C)C)NC(=O)[C@H](CCN)NC(=O)[C@@H](CC(C)C)NC(=O)[C@H](CCCN)NC1=O", "note": "[Compound 1057] ({CH2CO}-[4Pal]Y(Carboxymethyl)DWV[Bip]I[Orn][dL][Dab]LVTCA-NH2; thioether N-14)", "IC50": 0.129}
{"smiles": "CC(C)C[C@H]1NC(=O)[C@H](CCCN)NC(=O)[C@H](CCCNC(N)=O)NC(=O)[C@H](Cc2ccc(-c3ccccc3)cc2)NC(=O)[C@H](C(C)C)NC(=O)[C@H](Cc2c[nH]c3ccccc23)NC(=O)[C@H](CC(=O)O)NC(=O)[C@H](Cc2ccsc2)NC(=O)[C@H](CN)NC(=O)CSC[C@@H](C(=O)N[C@@H](C)C(N)=O)NC(=O)[C@H]([C@@H](C)O)NC(=O)[C@H](C(C)C)NC(=O)[C@H](CC2CCCCC2)NC(=O)[C@H](CCN)NC1=O", "note": "[Compound 2100]", "IC50": 0.0212}
{"smiles": "CNC[C@@H]1NC(=O)CSC[C@@H](C(=O)N[C@@H](C)C(N)=O)NC(=O)[C@H](C(C)O)NC(=O)[C@H](C(C)C)NC(=O)[C@H](CC2CCCCC2)NC(=O)[C@H](CCN)NC(=O)[C@@H](CC(C)C)NC(=O)[C@H](CCCN)NC(=O)[C@H](C(C)C)NC(=O)[C@H](Cc2ccc(-c3ccccc3)cc2)NC(=O)[C@H](C(C)C)NC(=O)[C@H](Cc2c[nH]c3ccccc23)NC(=O)[C@H](CC(=O)O)NC(=O)[C@H](Cc2ccc(OCC(=O)O)cc2)NC1=O", "note": "(stereo partly drawn) [Compound 2515]", "IC50": 0.0163}
{"smiles": "Cc1cccc(C[C@@H]2NC(=O)[C@H](CC(=O)O)NC(=O)[C@H](Cc3ccc(C(=O)O)cc3)NC(=O)[C@H](Cc3ccncc3)NC(=O)CSC[C@@H](C(=O)N[C@H](CC(N)=O)C(N)=O)NC(=O)[C@H](CO)NC(=O)[C@H](C(C)C)NC(=O)[C@H](CC3CCCCC3)NC(=O)[C@H](CCN)NC(=O)[C@@H](CC(C)C)NC(=O)[C@H](CCCN)NC(=O)[C@H](Cc3ccc(O)cc3)NC(=O)[C@H](Cc3ccc(-c4ccccc4)cc3)NC(=O)[C@H](C(C)C)NC2=O)c1", "note": "[Compound 2291] ({CH2CO}-[4Pal][Phe(4-COOH)]D[Phe(3-Me)]V[Bip]Y[Orn][dL][Dab][Cha]VSC[dN]-NH2; thioether N-14)", "IC50": 0.0106}
{"smiles": "CC(C)C[C@@H]1NC(=O)[C@H](Cc2c[nH]c3ccccc23)NC(=O)[C@H](CC(=O)O)NC(=O)[C@H](Cc2cccc(C(=O)O)c2)NC(=O)[C@H](CN)NC(=O)CSC[C@@H](C(=O)NCC(N)=O)NC(=O)[C@H](CO)NC(=O)[C@H](C(C)C)NC(=O)[C@H](CC2CCCCC2)NC(=O)[C@H](CCN)NC(=O)[C@@H](CC(C)C)NC(=O)[C@H](CCCN)NC(=O)[C@H](C(C)C)NC(=O)[C@H](Cc2ccc(-c3ccccc3)cc2)NC1=O", "note": "[Compound 2021] ({CH2CO}-[Dap][Phe(3-COOH)]DWL[Bip]V[Orn][dL][Dab][Cha]VSCG-NH2; thioether N-14)", "IC50": 0.0151}
